Experimental data published in patent US20090137617A1, “USE OF HAPTOGLOBIN GENOTYPING IN DIAGNOSIS AND TREATMENT OF CARDIOVASCULAR DISEASE” (priority 2007, published 2009).
Read-outs that look alike come from different tables or passages of the source.

Legend:
[1] = per 1 mg, according to the National Formulary, cited from earlier work
[2] = test system: DM individuals with the Hp 2-2 genotype; assay: ICARE study: randomized placebo-controlled trial of vitamin E, cardiovascular events (MI, stroke, CVD death); type: in vivo, human
Text: The study protocol of the ICARE study involves the following: participants were drawn from 47 primary health clinics of the […] Health Services in the northern sector of Israel. […] These Hp 2-2 individuals were randomly assigned to treatment with either vitamin E or placebo. The major study outcomes (MI, stroke, CVD death) were identified prospectively in this population over an 18 month period. A preplanned secondary analysis of ICARE was to assess the ability of vitamin E therapy to influence outcomes in those ICARE participants who were also taking statins. Statin use as prospectively defined in ICARE was based on the use of statins by the participant in at least eight of the twelve months preceding enrollment of the participant in the study. The decision to use statins for a particular participant was under the discretion of the patient's primary care physician and was in no way influenced by the patient's participation in the ICARE study […] However, only about half of the Hp 2-2 DM participants in ICARE received statin therapy. […] Of the 801 Hp 2-2 individuals taking […] cohort, 386 were randomized to vitamin E and 415 to placebo. There was no significant difference in the baseline characteristics, concurrent medications, or diabetes characteristics between those individuals taking statins who were randomized to placebo or vitamin E.

[3] = animal studies; cited from earlier work
[4] = test system: cultured endothelial cells; details: vitamin E added to the cellular preparation; cited from earlier work
[5] = double-blind protocols and other large studies, even at high doses; cited from earlier work

Question: With Cc1c(C)c2c(c(C)c1O)CCC(C)(CCCC(C)CCCC(C)CCCC(C)C)O2 (racemic) [dl-alpha-tocopherol] as the compound, how does the “specific activity (IU per milligram)” value [1] read?
Answer: 1.10 IU

Question: For CC(=O)Oc1c(C)c(C)c2c(c1C)CC[C@@](C)(CCC[C@H](C)CCC[C@H](C)CCCC(C)C)O2 (racemic) [dl-alpha-tocopheryl acetate], which “specific activity (IU per milligram)” value ([1]; listed as all-rac-α-tocopherol acetate) is on record?
Answer: 1.00 IU

Question: Which “specific activity (IU per milligram)” value [1] does the source give for Cc1c(C)c2c(c(C)c1O)CC[C@@](C)(CCC[C@H](C)CCC[C@H](C)CCCC(C)C)O2 [d-alpha-tocopherol] here?
Answer: 1.49 IU

Question: Which “specific activity (IU per milligram)” value ([1]; listed as RRR-.alpha-tocopherol acetate) does the source give for CC(=O)Oc1c(C)c(C)c2c(c1C)CC[C@@](C)(CCC[C@H](C)CCC[C@H](C)CCCC(C)C)O2 [d-alpha-tocopheryl acetate] here?
Answer: 1.36 IU

Question: What does the source list for alpha-tocopherol [vitamin E]?
Answer: event rate (MI, stroke, CVD death) ([2]; Hp 2-2 DM individuals taking statins (at least eight of the twelve months preceding enrollment), randomized to vitamin E, 18 month period): 1.3%; hazard ratio [HR] vs placebo ([2]; Hp 2-2 DM individuals taking statins, vitamin E vs placebo, 95% CI 0.15-0.83, p=0.017 by log-rank): 0.31; reduction in CVD events ([2]; all Hp 2-2 DM participants in ICARE, vitamin E vs placebo): 50%; event rate (MI, stroke, CVD death) ([2]; statin use widened to at least one of the twelve months preceding enrollment, p=0.013 vs placebo): 1.7%; carcinogenicity / teratogenicity [3]: not carcinogenic or teratogenic; oxidative modification of LDL [4]: totally inhibited; side effects [5]: few side effects
